Data published in patent publication US20240368194A1, “IRAK4 DEGRADATION AGENT, AND PREPARATION METHOD THEREFOR AND USE THEREOF” (SHANGHAI LEADINGTAC PHARMACEUTICAL CO. LTD., priority 2021, published 2024).

Experiments:
[1] = biological target: IRAK4 protein in THP-1 cells (Homo sapiens (Human), UniProt Q9NWZ3); test: Degradation of IRAK4 in THP-1 cells, human IRAK4 AlphaLISA assay; assay type: cell-based; conditions: 24 h incubation
In short: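 THP-1 cells, after overnight plating, exposed 24 h at 37 °C to compound at 0.03-3000 nM final. Lysate IRAK4 read by Western blot and by AlphaLISA (acceptor beads 10 μg/mL, biotin anti-IRAK4 1 nM, donor beads 40 μg/mL, 23 °C). DC50 and Dmax from log concentration-response fit.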

IRAK4 kinase = IRAK4 kinase (Homo sapiens (Human), UniProt Q9NWZ3); test: IRAK4 kinase activity test (KinEASE-STK S1 HTRF kit); assay type: biochemical; conditions: 2.5 nM IRAK4 kinase, 7 μM ATP, 37° C. 120 min
Protocol: Then 2.5 nM 1RAK4 kinase (Carna), 1 μM biotinylated polypeptide substrate (Cisbio) and 7 μM adenosine triphosphate (Sigma-Aldrich) were sequentially added, and the mixtures were incubated at 37° C. for 120 min. Subsequently, an anti-phosphoserine/threonine antibody (Cisbio) conjugated with a europium element compound and conjugated modified XL665 streptavidin (Cisbio) were added to the reaction systems to stop the reactions. After 1 h of incubation at room temperature, the fluorescence intensity of each well was measured at the excitation wavelength of 337 nm and the emission wavelengths of 620 nm and 665 nm with a microplate reader EnVision (PerkinElmer) in the HTRF mode, and Ratio values were calculated using the formula Ratio=(665 nm/620 nm)×[…]. The inhibition rate of the compound at each concentration was calculated by comparing the fluorescence intensity ratio with that of the control group. Then a non-linear curve fitting of logarithmic concentration-inhibition rate was performed using GraphPad Prism 7, and the IC50 value of the compound was obtained.

Chain of IRAK4 protein in THP-1 cells (Q9NWZ3 whole entry): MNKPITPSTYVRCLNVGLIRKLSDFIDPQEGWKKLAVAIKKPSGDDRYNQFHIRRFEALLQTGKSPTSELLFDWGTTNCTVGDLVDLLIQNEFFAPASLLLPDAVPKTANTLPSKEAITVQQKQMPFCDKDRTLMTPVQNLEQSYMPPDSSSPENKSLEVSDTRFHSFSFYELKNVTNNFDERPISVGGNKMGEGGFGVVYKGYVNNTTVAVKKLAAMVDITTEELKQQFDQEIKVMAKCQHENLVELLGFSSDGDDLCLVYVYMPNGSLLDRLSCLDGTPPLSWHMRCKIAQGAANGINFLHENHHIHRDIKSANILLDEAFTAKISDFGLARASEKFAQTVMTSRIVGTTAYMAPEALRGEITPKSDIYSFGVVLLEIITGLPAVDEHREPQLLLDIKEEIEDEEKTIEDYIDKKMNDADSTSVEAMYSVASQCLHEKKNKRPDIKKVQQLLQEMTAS
Chain of IRAK4 kinase (Q9NWZ3 whole entry): as above

Compound | DC50 [1] [nM] | Dmax [1] [%] | IC50 (IRAK4 kinase) [nM]
O=C1CCN(c2cc(C(=O)N3CCC(CCN4CCC(n5cc(NC(=O)c6cnn7ccc(N8CCOCC8)nc67)c(C(F)F)n5)CC4)CC3)ccc2F)C(=O)N1 [Example 37, N-(3-(difluoromethyl)-1-(1-(2-(1-(3-(2,4-dioxotetrahydropyrimidin-1(2H)-yl)-4-fluorobenzoyl)piperidin-4-yl)ethyl)piperidin-4-yl)-1H-pyrazol-4-yl)-5-morpholinopyrazolo[1,5-a]pyrimidine-3-carboxamide] | 42 | 81.1 | 13.1
O=C1CCN(c2cc(C(=O)N3CCN(CCCCN4CCC(n5cc(NC(=O)c6cnn7ccc(N8C[C@H]9C[C@@H]8CO9)nc67)c(C(F)F)n5)CC4)CC3)ccc2Cl)C(=O)N1 [Example 40, 5-((1R,4R)-2-oxa-5-azabicyclo[2.2.1]heptan-5-yl)-N-(1-(1-(4-(4-(4-chloro-3-(2,4-dioxotetrahydropyrimidin-1(2H)-yl)benzoyl)piperazin-1-yl)-n-butyl)piperidin-4-yl)-3-(difluoromethyl)-1H-pyrazol-4-yl)pyrazolo[1,5-a]pyrimidine-3-carboxamide] | 32.8 | 79.2 | 34.5
O=C1CCN(c2cc(C(=O)N3CCC4(CCC(CCN5CCC(n6cc(NC(=O)c7cnn8ccc(N9CCOCC9)nc78)c(C(F)F)n6)CC5)CC4)CC3)ccc2Cl)C(=O)N1 [Example 42, N-(1-(1-(2-(3-(4-chloro-3-(2,4-dioxotetrahydropyrimidin-1(2H)-yl)benzoyl)-3-azaspiro[5.5]undecan-9-yl)ethyl)piperidin-4-yl)-3-(difluoromethyl)-1H-pyrazol-4-yl)-5-morpholinopyrazolo[1,5-a]pyrimidine-3-carboxamide] | 3.66 | 91.7 | 18.6
O=C1CCN(c2cc(C(=O)N3CCC4(CCC(CCN5CCC(n6cc(NC(=O)c7cnn8ccc(N9C[C@H]%10C[C@@H]9CO%10)nc78)c(C(F)F)n6)CC5)CC4)CC3)ccc2Cl)C(=O)N1 [Example 43, 5-((1R,4R)-2-oxa-5-azabicyclo[2.2.1]heptan-5-yl)-N-(1-(1-(2-(3-(4-chloro-3-(2,4-dioxotetrahydropyrimidin-1(2H)-yl)benzoyl)-3-azaspiro[5.5]undecan-9-yl)ethyl)piperidin-4-yl)-3-(difluoromethyl)-1H-pyrazol-4-yl)pyrazolo[1,5-a]pyrimidine-3-carboxamide] | 15.1 | 79.5 | 45
Cc1ccc(C(=O)N2CCC3(CCC(CN4CCC(n5cc(NC(=O)c6cnn7ccc(N8C[C@H]9C[C@@H]8CO9)nc67)c(C(F)F)n5)CC4)CC3)CC2)cc1N1CCC(=O)NC1=O [Example 44, 5-((1R,4R)-2-oxa-5-azabicyclo[2.2.1]heptan-5-yl)-N-(3-(difluoromethyl)-1-(1-((3-(3-(2,4-dioxotetrahydropyrimidin-1(2H)-yl)-4-methylbenzoyl)-3-azaspiro[5.5]undecan-9-yl)methyl)piperidin-4-yl)-1H-pyrazol-4-yl)pyrazolo[1,5-a]pyrimidine-3-carboxamide] | 6.3 | 80.5 | 13.4
Cc1ccc(C(=O)N2CCC3(CCC(CN4CCC(n5cc(NC(=O)c6cnn7ccc(N8CCC[C@H](N)C8)nc67)c(C(F)F)n5)CC4)CC3)CC2)cc1N1CCC(=O)NC1=O [Example 49, (S)-5-(3-aminopiperidin-1-yl)-N-(3-(difluoromethyl)-1-(1-((3-(3-(2,4-dioxotetrahydropyrimidin-1(2H)-yl)-4-methylbenzoyl)-3-azaspiro[5.5]undecan-9-yl)methyl)piperidin-4-yl)-1H-pyrazol-4-yl)pyrazolo[1,5-a]pyrimidine-3-carboxamide] | 3.22 | 97.1 | 7.05
Cc1ccc(C(=O)N2CCC3(CCC(CN4CCC(n5cc(NC(=O)c6cnn7ccc(N8CC9(COC9)C8)nc67)c(C(F)F)n5)CC4)CC3)CC2)cc1N1CCC(=O)NC1=O [Example 50, N-(3-(difluoromethyl)-1-(1-((3-(3-(2,4-dioxotetrahydropyrimidin-1(2H)-yl)-4-methylbenzoyl)-3-azaspiro[5.5]undecan-9-yl)methyl)piperidin-4-yl)-1H-pyrazol-4-yl)-5-(2-oxa-6-azaspiro[3.3]heptan-6-yl)pyrazolo[1,5-a]pyrimidine-3-carboxamide] | 5.94 | 82.1 | 36.7
O=C1CCN(c2cc(C(=O)N3CCC4(CCC(CN5CCC(n6cc(NC(=O)c7cnn8ccc(N9CCOCC9)nc78)c(C(F)F)n6)CC5)CC4)CC3)ccc2OC(F)(F)F)C(=O)N1 [Example 52, N-(3-(difluoromethyl)-1-(1-((3-(3-(2,4-dioxotetrahydropyrimidin-1(2H)-yl)-4-(trifluoromethoxy)benzoyl)-3-azaspiro[5.5]undecan-9-yl)methyl)piperidin-4-yl)-1H-pyrazol-4-yl)-5-morpholinopyrazolo[1,5-a]pyrimidine-3-carboxamide] | 18.4 | 95.4 | 23.8
Cc1ccc(C(=O)N2CCC3(CCC(CN4CCC(n5cc(NC(=O)c6cnn7ccc(N8CCS(=O)(=O)CC8)nc67)c(C(F)F)n5)CC4)CC3)CC2)cc1N1CCC(=O)NC1=O [Example 55, N-(3-(difluoromethyl)-1-(1-((3-(3-(2,4-dioxotetrahydropyrimidin-1(2H)-yl)-4-methylbenzoyl)-3-azaspiro[5.5]undecan-9-yl)methyl)piperidin-4-yl)-1H-pyrazol-4-yl)-5-(1,1-dioxothiomorpholinyl)pyrazolo[1,5-a]pyrimidine-3-carboxamide] | 7.52 | 79.2 | 21.3
Cc1ccc(C(=O)N2CCC3(CCC(CN4CCC(n5cc(NC(=O)c6cnn7ccc(N8CCC[C@H](O)C8)nc67)c(C(F)F)n5)CC4)CC3)CC2)cc1N1CCC(=O)NC1=O [Example 56, (S)-N-(3-(difluoromethyl)-1-(1-((3-(3-(2,4-dioxotetrahydropyrimidin-1(2H)-yl)-4-methylbenzoyl)-3-azaspiro[5.5]undecan-9-yl)methyl)piperidin-4-yl)-1H-pyrazol-4-yl)-5-(3-hydroxypiperidin-1-yl)pyrazolo[1,5-a]pyrimidine-3-carboxamide] | 0.41 | 96.4 | 3.87
O=C1CCN(c2cc(C(=O)N3CCC4(CCC(CN5CCC(n6cc(NC(=O)c7cnn8ccc(N9CCC[C@H](O)C9)nc78)c(C(F)F)n6)CC5)CC4)CC3)ccc2Cl)C(=O)N1 [Example 57, (S)-N-(1-(1-((3-(4-chloro-3-(2,4-dioxotetrahydropyrimidin-1(2H)-yl)benzoyl)-3-azaspiro[5.5]undecan-9-yl)methyl)piperidin-4-yl)-3-(difluoromethyl)-1H-pyrazol-4-yl)-5-(3-hydroxypiperidin-1-yl)pyrazolo[1,5-a]pyrimidine-3-carboxamide] | 0.58 | 96.6 | 4.57
COc1ccc(C(=O)N2CCC3(CCN(CCCN4CCC(n5cc(NC(=O)c6cnn7ccc(N8CCOCC8)nc67)c(C(F)F)n5)CC4)CC3)CC2)cc1N1CCC(=O)NC1=O [Example 60, N-(3-(difluoromethyl)-1-(1-(3-(9-(3-(2,4-dioxotetrahydropyrimidin-1(2H)-yl)-4-methoxybenzoyl)-3,9-diazaspiro[5.5]undecan-3-yl)propyl)piperidin-4-yl)-1H-pyrazol-4-yl)-5-morpholinopyrazolo[1,5-a]pyrimidine-3-carboxamide] | 9.36 | 96.6 | 21.9
